Laboratory results published in patent US5138101A, “Recovery of high-boiling aldehydes from rhodium-catalyzed hydroformylation processes” (Eastman Kodak Company, priority 1991, dated 1992).

Assays:
[1] = Rhodium concentration in the extraction solution phase after extraction, with and without sodium carboxylate salt; assay type: physicochemical; conditions: for Rh Conc.: extraction solution phase
Description: Each experiment employed an extraction temperature of 50° C., an agitation period of 30 minutes and a phase separation period of 5 minutes followed by sampling of the extraction solution phase. One mL aliquots of the lower, extraction solution phase was sampled for Rh analysis.
The results of these experiments are shown in Table IV wherein Na Conc. and Rh Conc. are the sodium [Na] and rhodium [Rh] concentrations in mg/L in the extraction solution phase. Also set forth in Table IV are the partition coefficients obtained for the C9-enal isomers, C10-dial isomers and the p diisopropylbenzene hydroformylation solvent (H.S.) in each example.
[…] […] The extractions were carried out at 50° C. using 62 mL of each hydroformylation product solution and 50 mL of an extraction mixture consisting of a 3:1 volume ratio of methanol and water.
Each extraction employed an agitation period of 30 minutes and a phase separation period of 5 minutes followed by sampling of the extraction solution phase. One mL aliquots of the lower, extraction solution phase was sampled for Rh analysis. […]

[2] = Extraction and back-extraction with p-diisopropylbenzene or 1,7-octadiene: rhodium concentration in both phases, composition of extraction solution; assay type: physicochemical
Description: Examples […] illustrate yet another embodiment of the process of the present invention wherein extraction solution containing dissolved rhodium is back-extracted with either hydroformylation solvent or olefinic feedstock to reduce the concentration of rhodium in the extraction solution.
The general procedure described in Examples 31-48 was used to extract 60.5 mL of hydroformylation product solution obtained by the hydroformylation of 1,7 octadiene in the presence of a catalyst system comprising rhodium and BISBI phosphine (Reference Example 9). […] The extraction flask was charged with the hydroformylation product solution, 37 mL methanol, 12 mL water and […] [Na] provided as sodium oleate.
For Example 88, the extraction mixture was stirred at room temperature for 30 minutes and then drained into a calibrated, addition funnel and allowed to stand for about five minutes to permit phase separation. The volume of the hydroformylation product solution (organic) phase was 45 mL and the volume of the extraction solution phase was 65 ml. Samples of each phase were taken for rhodium and product composition analyses.
For Example 89, the extraction solution phase separated in Example 88 was added to a clean 250 mL flask along with 30 mL of p-diisopropylbenzene and the mixture was stirred at 50° C. for 30 minutes, was allowed to stand at 50° C. for about 5 minutes to permit phase separation and then each phase was separated and analyzed for composition and rhodium concentration.
For Example 90, the extraction solution separated in Example 89 was added to a clean 250 mL flask along with another 30 mL of p-diisopropylbenzene hydroformylation solvent. The mixture was agitated at 50° C. for thirty minutes, allowed to stand at 50° C. for 5 minutes to permit phase separation and each phase was analyzed for composition and rhodium concentration.
This scheme would be useful in a counter-current extraction method for recycling recovered hydroformylation product solution as well as in using the olefinic feed to the reactor as a back extraction solvent for recovering soluble rhodium from the methanol/water extract.
Example 91 was carried out using the procedure described in Examples 88. The flask was charged with 62 mL of a hydroformylation product solution (Reference Example 10) having a rhodium concentration 166 mg/L and containing 3.01 g of C9-enal, 12.69 g of C10-dial and 37.84 grams of p-diisopropylbenzene. Methanol (37 ml), water (16 ml) and 78 mg Na (as sodium 2-ethylhexanoate) were added to the flask. This mixture was stirred at 50° C. for 30 minutes and then allowed to stand for 5 minutes at 50° C. to permit phase separation. The hydroformylation product solution (organic) phase and the extraction solution phase were both sampled and analyzed for rhodium concentration. The 2 phases were drained into a clean, graduated addition funnel and the volumes of the two phases were measured. The volume of the organic layer was 43 mL and the extraction solution layer was 62 mL.
For Example 92, the extraction solution phase produced in Example 91 was added to a clean, 250 mL flask along with 30 mL of p-diisopropylbenzene and the mixture was stirred at 50° C. for 30 minutes and then allowed to separate into two phases. The two phases were analyzed for rhodium concentration and composition. The mixture was drained into a clean addition funnel to separate the two phases. For Example 93, the extraction solution phase of Example 92 and 30 mL of 1,7-octadiene were added to a clean, 250 mL flask. This mixture was stirred at 50° C. for 30 minutes and then allowed to separate into two phases which were analyzed for rhodium concentration.
The amounts (g) of C9-enal, C10-dial in the sample of hydroformylation product solution initially extracted and in the methanol/water extraction solutions resulting from Examples 91, 92 and 93 are given in Table XIII. The ratio given in Table XIII is the weight ratio of C10-dial:C9-enal. […]

[3] = Example 88, initial extraction, sodium oleate
[4] = Example 89, first back-extraction, p-diisopropylbenzene, 50° C.
[5] = Example 90, second back-extraction, p-diisopropylbenzene, 50° C.
[6] = Example 91, initial extraction, sodium 2-ethylhexanoate, 50° C.
[7] = Example 92, back-extraction, p-diisopropylbenzene, 50° C.
[8] = Example 94, initial extraction, no salt, 25° C.
[9] = Example 95, back-extraction, p-diisopropylbenzene, 50° C.

SMILES: [Rh] [Rh, rhodium]
- Rh Conc. in extraction solution phase ([1]; Example 31, 50° C., Na 0): 120 mg/L
- Rh Conc. in extraction solution phase ([1]; Example 32, Na 82 mg/L as 2-ethylhexanoate): 54 mg/L
- Rh Conc. in extraction solution phase ([1]; Example 33, Na 164 mg/L as 2-ethylhexanoate): 37 mg/L
- Rh Conc. in extraction solution phase ([1]; Example 34, Na 327 mg/L as 2-ethylhexanoate): 28 mg/L
- Rh Conc. in extraction solution phase ([1]; Example 35, Na 653 mg/L as 2-ethylhexanoate): 20 mg/L
- Rh Conc. in extraction solution phase ([1]; Example 36, Na 1307 mg/L as 2-ethylhexanoate): 12 mg/L
- Rh Conc. in extraction solution phase ([1]; Example 37, 50° C., Na 0): 56 mg/L
- Rh Conc. in extraction solution phase ([1]; Example 38, Na 82 mg/L as oleate): 6 mg/L
- Rh Conc. in extraction solution phase ([1]; Example 39, Na 164 mg/L as oleate): 5 mg/L
- Rh Conc. in extraction solution phase ([1]; Example 40, Na 327 mg/L as oleate): 4 mg/L
- Rh Conc. in extraction solution phase ([1]; Example 41, Na 653 mg/L as oleate): 4 mg/L
- Rh Conc. in extraction solution phase ([1]; Example 42, Na 1307 mg/L as oleate): 3.6 mg/L
- Rh Conc. in extraction solution phase ([1]; Example 43, 50° C., Na 0): 72 mg/L
- Rh Conc. in extraction solution phase ([1]; Example 44, Na 82 mg/L as n butyrate): 39 mg/L
- Rh Conc. in extraction solution phase ([1]; Example 45, Na 164 mg/L as n butyrate): 32 mg/L
- Rh Conc. in extraction solution phase ([1]; Example 46, Na 327 mg/L as n butyrate): 25 mg/L
- Rh Conc. in extraction solution phase ([1]; Example 47, Na 653 mg/L as n butyrate): 22 mg/L
- Rh Conc. in extraction solution phase ([1]; Example 48, Na 1307 mg/L as n butyrate): 15 mg/L
- Rh Conc. in extraction solution phase ([1]; Example 49, methanol/water 37/27 mL, Na 0): 18.6 mg/L
- Rh Conc. in extraction solution phase ([1]; Example 50, methanol/water 37/27 mL, Na 100 as oleate): 2.6 mg/L
- Rh Conc. in extraction solution phase ([1]; Example 52, Ref. Ex. 1 (BISBI), MeOH:water 3:1, 50° C., Na 0): 120 mg/L
- Rh Conc. in extraction solution phase ([1]; Example 53, Ref. Ex. 1 (BISBI), Na 82 mg/L): 54 mg/L
- Rh Conc. in extraction solution phase ([1]; Example 54, Ref. Ex. 1 (BISBI), Na 164 mg/L): 37 mg/L
- Rh Conc. in extraction solution phase ([1]; Example 55, Ref. Ex. 1 (BISBI), Na 327 mg/L): 28 mg/L
- Rh Conc. in extraction solution phase ([1]; Example 56, Ref. Ex. 11 (TCHP), Na 0): 7.6 mg/L
- Rh Conc. in extraction solution phase ([1]; Example 57, Ref. Ex. 11 (TCHP), Na 82 mg/L): 5.2 mg/L
- Rh Conc. in extraction solution phase ([1]; Example 58, Ref. Ex. 11 (TCHP), Na 164 mg/L): 2.6 mg/L
- Rh Conc. in extraction solution phase ([1]; Example 59, Ref. Ex. 11 (TCHP), Na 327 mg/L): 1.4 mg/L
- Rh Conc. in extraction solution phase ([1]; Example 60, Ref. Ex. 12 (TBP), Na 0): 6.2 mg/L
- Rh Conc. in extraction solution phase ([1]; Example 61, Ref. Ex. 12 (TBP), Na 82 mg/L): 5.4 mg/L
- Rh Conc. in extraction solution phase ([1]; Example 62, Ref. Ex. 12 (TBP), Na 164 mg/L): 5.6 mg/L
- Rh Conc. in extraction solution phase ([1]; Example 63, Ref. Ex. 12 (TBP), Na 327 mg/L): 5.4 mg/L
- Rh Conc. in extraction solution phase ([1]; Example 64, Ref. Ex. 7 (TPP), Na 0): 7.6 mg/L
- Rh Conc. in extraction solution phase ([1]; Example 65, Ref. Ex. 7 (TPP), Na 82 mg/L): 2.0 mg/L
- Rh Conc. in extraction solution phase ([1]; Example 66, Ref. Ex. 7 (TPP), Na 164 mg/L): 2.2 mg/L
- Rh Conc. in extraction solution phase ([1]; Example 67, Ref. Ex. 7 (TPP), Na 327 mg/L): 1.8 mg/L
- Rh Conc. in extraction solution phase ([1]; Example 68, Ref. Ex. 13 (TOP), Na 0): 1.2 mg/L
- Rh Conc. in extraction solution phase ([1]; Example 69, Ref. Ex. 13 (TOP), Na 82 mg/L): 1.0 mg/L
- Rh Conc. in extraction solution phase ([1]; Example 70, Ref. Ex. 13 (TOP), Na 164 mg/L): < 1 mg/L
- Rh Conc. in extraction solution phase ([1]; Example 71, Ref. Ex. 13 (TOP), Na 327 mg/L): < 1 mg/L
- Rh Conc. in extraction solution phase ([1]; Example 72, Ref. Ex. 26 (BISBI, TPP), Na 0): 30 mg/L
- Rh Conc. in extraction solution phase ([1]; Example 73, Ref. Ex. 26 (BISBI, TPP), Na 82 mg/L): 10 mg/L
- Rh Conc. in extraction solution phase ([1]; Example 74, Ref. Ex. 26 (BISBI, TPP), Na 164 mg/L): 8.2 mg/L
- Rh Conc. in extraction solution phase ([1]; Example 75, Ref. Ex. 26 (BISBI, TPP), Na 327 mg/L): 6.8 mg/L
- Rh Conc. in extraction solution phase ([1]; Example 76, Ref. Ex. 27 (BISBI, TCHP), Na 0): 10 mg/L
- Rh Conc. in extraction solution phase ([1]; Example 77, Ref. Ex. 27 (BISBI, TCHP), Na 82 mg/L): 1.8 mg/L
- Rh Conc. in extraction solution phase ([1]; Example 78, Ref. Ex. 27 (BISBI, TCHP), Na 164 mg/L): 2.8 mg/L
- Rh Conc. ([1]; Example 79): < 1 mg [Rh] per liter
- Rh Conc. ([1]; Example 80): < 1 mg [Rh] per liter
- Rh Conc. ([1]; Example 81): 3.0 mg [Rh] per liter
- Rh Conc. ([1]; Example 82): < 1 mg [Rh] per liter
- Rh Conc. ([1]; Example 83): 2.0 mg [Rh] per liter
- Rh Conc. ([1]; Example 84): < 1 mg [Rh] per liter
- Rh Conc. ([1]; Example 85): < 1 mg [Rh] per liter
- Rh Conc. ([1]; Example 86): < 1 mg [Rh] per liter
- Rh Conc. ([1]; Example 87): 1.2 mg [Rh] per liter
- Rhodium Concentration, Extraction Solution Phase [2, 3]: 5.2 mg Rh per liter
- Rhodium Concentration, Organic Phase [2, 3]: 235 mg Rh per liter
- Rhodium Concentration, Extraction Solution Phase [2, 4]: 1.6 mg Rh per liter
- Rhodium Concentration, Organic Phase [2, 4]: 7.2 mg Rh per liter
- Rhodium Concentration, Extraction Solution Phase [2, 5]: 1.0 mg Rh per liter
- Rhodium Concentration, Organic Phase [2, 5]: 1.2 mg Rh per liter
- Rhodium Concentration, Extraction Solution Phase [2, 6]: 6.2 mg Rh per liter
- Rhodium Concentration, Organic Phase [2, 6]: 216 mg Rh per liter
- Rhodium Concentration, Extraction Solution Phase [2, 7]: 1.0 mg Rh per liter
- Rhodium Concentration, Organic Phase [2, 7]: 7.0 mg Rh per liter
- Rhodium Concentration, Organic Phase ([2]; Example 93, back-extraction, 1,7-octadiene, 50° C.): < 1 mg Rh per liter
- Rhodium Concentration, Extraction Solution Phase ([2]; Example 93, back-extraction, 1,7-octadiene, 50° C., listed as Rhodium): < 1 mg Rh per liter
- Rhodium Concentration, Extraction Solution Phase ([2]; Example 93, back-extraction, 1,7-octadiene, 50° C., listed as rhodium): below detection limits
- Rhodium Concentration, Extraction Solution Phase [2, 8]: 37 mg Rh per liter
- Rhodium Concentration, Organic Phase [2, 8]: 195 mg Rh per liter
- Rhodium Concentration, Extraction Solution Phase [2, 9]: 33 mg Rh per liter
- Rhodium Concentration, Organic Phase [2, 9]: 24 mg Rh per liter
